# What was measured:
# [1] = therapeutic use; several daily doses of tablets required; cited from earlier work
# histamine-H2 receptors = target: T1, histamine-H2 receptors (Cavia porcellus, UniProt P47747); assay: pA2-values in vitro on isolated guinea-pigs' atrium (H2-antagonistic activity); parameters: species or system guinea-pig
# T1 construct: in vitro on isolated guinea-pigs' atrium; from tissue; host or cells: isolated guinea-pig atrium (right atrium per b6)
# From the text: J. Pharmacol. Chemother. ", 27, 427 (1966) and Black et al, "Nature", 236, 385 (1971)].
# One recognized method of determining the H2 -antagonistic activity is the determination of the pA2 -values in vitro on isolated guinea-pigs' atrium (see Ariens, Molecular Pharmacology, Volume 1, Academic Press, New York, 1964).
# T1 sequence (P47747 whole entry): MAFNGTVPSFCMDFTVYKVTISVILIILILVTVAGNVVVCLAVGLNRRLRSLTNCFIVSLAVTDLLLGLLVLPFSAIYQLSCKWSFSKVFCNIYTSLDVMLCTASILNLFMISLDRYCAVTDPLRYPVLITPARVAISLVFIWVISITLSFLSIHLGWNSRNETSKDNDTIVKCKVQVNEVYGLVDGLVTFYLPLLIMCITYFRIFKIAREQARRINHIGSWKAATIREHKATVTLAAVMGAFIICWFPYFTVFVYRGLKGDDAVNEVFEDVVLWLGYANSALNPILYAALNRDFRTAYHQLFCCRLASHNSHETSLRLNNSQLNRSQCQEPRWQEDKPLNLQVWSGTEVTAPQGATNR
Compound,half life [1],Kb (histamine-H2 receptors) [nM]
CNC(=C[N+](=O)[O-])NCCSCc1ccc(CN(C)C)o1 [ranitidine],relatively short half life,
CN/C(=N/CCSCc1nc[nH]c1C)NC#N [Cimetidine],relatively short half life,
[O-][s+]1nc(NCC(O)COc2cccc(CN3CCCCC3)c2)c(NCC(O)COc2cccc(CN3CCCCC3)c2)n1 (stereo not drawn) [Example 4],,7.24
